Reference: publication PMC11855827, “High-Throughput Screening of Five Compound Libraries for Anthelmintic Activity and Toxicity Leads to the Discovery of Two Flavonoid Compounds” (International Journal of Molecular Sciences, 2025)
“And” between values parts separate entries of the source, which are not always exact repeats. Equal values may be shown once. Read-outs that look alike come from different tables or passages of the source.

Tested on: C. elegans
[1] = Table S2, C. elegans SS assay, 110 μM, 0 h, averages of 4 data points
[2] = Table S2, C. elegans SS assay, 110 μM, 24 h, averages of 4 data points

| Molecule | Percentage of motility inhibition 0 h [1] | Percentage of motility inhibition 24 h [2] | Percentage of motility inhibition 0 h (110 µM) | Percentage of motility inhibition 24 h (110 µM) |
| --- | --- | --- | --- | --- |
| CC1=C[C@H]2[C@@H](CC1)[C@H](C)CC[C@H]2[C@@H](C)C(=O)O [Dihydroartemisinic acid] | 0% | 15% | – | – |
| CC(C)(O)[C@@H]1CC[C@](C)([C@H]2[C@@H](O)C[C@@]3(C)[C@@H]4C[C@H](O)[C@H]5C(C)(C)[C@@H](O)CC[C@]5(C)C4=CC[C@]23C)O1 [Astragenol] | 50% | 50% | – | – |
| CC(C)=C[C@H]1C[C@](C)(O)[C@@H]2[C@H]3CC[C@@H]4[C@@]5(C)CC[C@H](O[C@@H]6OC[C@H](O)[C@H](O[C@@H]7O[C@H](CO[C@@H]8O[C@H](CO)[C@@H](O)[C@H](O)[C@H]8O)[C@@H](O)[C@H](O)[C@H]7O[C@@H]7OC[C@@H](O)[C@H](O)[C@H]7O)[C@H]6O[C@@H]6O[C@@H](C)[C@H](O)[C@@H](O)[C@H]6O)C(C)(C)[C@@H]5CC[C@@]4(C)[C@@]34CO[C@@]2(C4)O1 [Jujuboside A] | – | – | 0% | 0% |
| CC(=O)OC(C)(C)CCC(=O)[C@](C)(O)[C@H]1[C@H](O)C[C@@]2(C)[C@@H]3CC=C4[C@@H](C[C@H](O)[C@@H](O)C4(C)C)[C@]3(C)C(=O)C[C@]12C [Cucurbitacin IIa] | 0% | 6% | – | – |
| C[C@H]1CC[C@@H]2N(C1)C[C@H]1[C@@H]3C[C@H]4[C@@H](C[C@H](O)[C@H]5C[C@@H](O)CC[C@@]54C)[C@@H]3CC[C@@H]1[C@]2(C)O [Peimine] | 7% | 0% | – | – |
| C=C(C)[C@@H]1CC=C(C=O)CC1 [L-Perillaldehyde] | 22% | 25% | – | – |
| C[N+](C)(C)[C@@H](Cc1c[nH]c(=S)[nH]1)C(=O)[O-] [Ergothioneine] | 16% | 0% | – | – |
| COC(=O)C1=COC2OC3CC1C2C(C)O3 (stereo not drawn) [Sarracenin] | 11% | 27% | – | – |
| CC1=C2C[C@H]3[C@@H](CC(=O)[C@H]4C[C@@H](O)CC[C@@]43C)[C@@H]2CC[C@]12O[C@@H]1C[C@H](C)CN[C@H]1[C@H]2C [Peimisine] | 0% | 0% | – | – |
| CC1(C)CC[C@]2(C(=O)O[C@@H]3O[C@H](CO)[C@@H](O)[C@H](O)[C@H]3O)CC[C@]3(C)C(=CC[C@@H]4[C@@]5(C)CC[C@H](O)C(C)(C)[C@@H]5CC[C@]43C)[C@@H]2C1 [Oleanolic acid 28-O-β-D-glucopyranoside] | 33% | 34% | – | – |
| C=C1CC[C@H]2[C@@H](/C=C(\C)C(=O)[C@@]3(O)C[C@H](C)[C@H](O)[C@@H]3[C@@H]1O)C2(C)C [Lathyrol] | 1% | 3% | – | – |
| NC(=O)[C@@H]1CC[C@@H]2CN1C(=O)N2OS(=O)(=O)[O-].[Na+] [Avibactam (sodium hydrate)] | 37% | 3% | – | – |
| N=C(N)NCCC[C@H](N)C(=O)O.N[C@@H](CCC(=O)O)C(=O)O [L-Arginine (L-glutamate)] | 22% | 0% | – | – |
| C/C=C1\C[C@@H](C)[C@](O)(CO)C(=O)OCC2=CC[N+]3([O-])CC[C@@H](OC1=O)[C@@H]23 (stereo partly drawn) [Usaramine N‐oxide] | 22% and 12% | – | – | – |
| COC(=O)[C@]1(C)CC[C@]2(C(=O)O[C@@H]3O[C@H](CO)[C@@H](O)[C@H](O)[C@H]3O)CC[C@]3(C)C(=CC[C@@H]4[C@@]5(C)C[C@H](O)[C@H](O[C@@H]6OC[C@@H](O[C@@H]7O[C@H](CO)[C@@H](O)[C@H](O)[C@H]7O)[C@H](O)[C@H]6O)[C@@](C)(CO)C5CC[C@]43C)[C@H]2C1 (stereo partly drawn) [Esculentoside H] | 0% | 17% | – | – |
| Liensinine (perchlorate) | 7% | 0% | – | – |
| CC1CCC(C(C)C)C(O)C1 (stereo not drawn) [Menthol] | 3% | 17% | – | – |
| C[C@]1(O)C[C@@H](O)[C@@H]2C(C(=O)O)=CO[C@@H](O[C@@H]3O[C@H](CO)[C@@H](O)[C@H](O)[C@H]3O)[C@@H]21 [Shanziside] | 1% | 4% | – | – |
| COc1ccc([C@@H]2CC(=O)c3c(O)cc(O[C@@H]4O[C@H](CO[C@@H]5O[C@@H](C)[C@H](O)[C@@H](O)[C@H]5O)[C@@H](O)[C@H](O)[C@H]4O)cc3O2)cc1 [Didymin] | 1% | 6% | – | – |
| CC(C)(O)[C@H]1CC[C@@](C)([C@H]2[C@@H](O)C[C@@]3(C)[C@@H]4C[C@H](O)[C@H]5C(C)(C)[C@@H](O)CC[C@@]56C[C@@]46CC[C@]23C)O1 [Cyclogalegenin] | 22% | 9% | – | – |
| CC1(C)CC[C@]2(C(=O)O)[C@H](O)C[C@]3(C)C(=CC[C@@H]4[C@@]5(C)C[C@H](O)[C@H](O[C@@H]6O[C@H](CO)[C@@H](O)[C@H](O)[C@H]6O)C(CO)(CO)[C@@H]5CC[C@]43C)[C@@H]2C1 [3-O-Beta-D-Glucopyranosylplatycodigenin] | 0% | 0% | – | – |
| OC[C@@H](O)[C@@H](O)[C@H](O)[C@H](O)CO (racemic) [DL-Mannitol] | 0% | 15% | – | – |
| CC(=O)OC(C)(C)CCC(=O)[C@](C)(O)[C@H]1[C@H](O)C[C@@]2(C)[C@@H]3CC=C4[C@@H](C[C@H](O)C(=O)C4(C)C)[C@]3(C)C(=O)C[C@]12C [Dihydrocucurbitacin B] | 0% | 11% | – | – |
| C[C@H]1O[C@@H](O[C@H]2CC[C@@]3(C)[C@@H](CC[C@]4(C)[C@@H]3C=C[C@]35OC[C@@]6(CCC(C)(C)C[C@H]63)[C@H](O)C[C@]54C)[C@]2(C)CO)[C@H](O)[C@@H](O[C@@H]2O[C@H](CO)[C@@H](O)[C@H](O)[C@H]2O)[C@H]1O [Saikosaponin D] | 34% | 52% | – | – |
| C=C(C)C(=O)O[C@H]1CC2=C[C@@H](C/C(C)=C/[C@H]3OC(=O)C(=C)[C@H]13)OC2=O [Deoxyelephantopin] | 0% | 9% | – | – |
| COc1cc2c(cc1OC)C1Cc3ccc(OC)c(OC)c3CN1CC2.Cl (stereo not drawn) [Tetrahydropalmatine (hydrochloride)] | 0% | 9% and 7% | – | – |
